Laboratory results: patent US9850283B2, “Macrocyclic inhibitors of the PD-1/PD-L1 and CD80(B7-1)/PD-L1 protein/protein interactions” (BRISTOL-MYERS SQUIBB COMPANY, priority 2013, dated 2017)
Like-named read-outs stand apart in the source and are kept apart here. Starred links: 1 amine or outer side, 2 acyl side, 3 side chain; linkers in the order of their positions; H or OH if unused. Positions of bridges follow the written chain, without caps; N, C: chain ends. Non-standard residues stand in square brackets, D forms with d. Residues, ends and D or L forms follow the SMILES beside them. *: point of attachment. Phe(4-guanidino) = N=C(N)Nc1ccc(C[C@H](N)C(=O)O)cc1; Phe(4-CH2NH2) = NCc1ccc(C[C@H](N)C(=O)O)cc1; X16 = O=C([C@@H]1CC[C@H](O)CN1[*:1])[*:2]; Phe(2-Cl) = N[C@@H](Cc1ccccc1Cl)C(=O)O; Bta = N[C@@H](Cc1csc2ccccc12)C(=O)O; Hyp = O=C(O)[C@@H]1C[C@@H](O)CN1; NMeNle = CCCC[C@H](NC)C(=O)O; NMeS = CN[C@@H](CO)C(=O)O; NMeA = CN[C@@H](C)C(=O)O; Dab = NCC[C@H](N)C(=O)O; Dap = NC[C@H](N)C(=O)O; Bn = c1ccc(C*)cc1; Sar = CNCC(=O)O

Key:
[1] = biological target: T1, LK35.2-hPD-L1 cells / PE-labeled PD-1-Ig (Homo sapiens, UniProt Q9NZQ7); assay: LK35.2-hPD-L1 cell binding high-content screening assay; assay type: cell-based
T1 construct: expressed in transfected cells; host or cells: LK35.2 mouse B cell line
T1 sequence (Q9NZQ7 19-290): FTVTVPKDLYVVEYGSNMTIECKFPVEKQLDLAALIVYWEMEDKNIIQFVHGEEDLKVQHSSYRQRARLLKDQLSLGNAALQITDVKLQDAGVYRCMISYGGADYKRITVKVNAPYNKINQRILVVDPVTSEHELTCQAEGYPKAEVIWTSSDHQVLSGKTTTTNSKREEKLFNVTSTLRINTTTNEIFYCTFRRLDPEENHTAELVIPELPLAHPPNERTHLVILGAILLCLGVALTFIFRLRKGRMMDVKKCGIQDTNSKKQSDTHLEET
How it was run: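 Readout: high-content imaging of PE-PD-1-Ig bound to LK35.2-hPD-L1 cells. Cells plated overnight (RPMI/10% FCS); compound + 1 nM PE-PD-1-Ig, 1 h, 37 °C; 3× dPBS wash before imaging.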

[2] = biological target: T2, Human PD-L1/PD-1 (Homo sapiens, UniProt Q9NZQ7); assay: HTRF PD-1-Ig/PD-L1-His binding assay (human PD-L1)
T2 construct: made in house; host or cells: HEK293T
T2 sequence (Q9NZQ7 with tags, fused parts or gaps): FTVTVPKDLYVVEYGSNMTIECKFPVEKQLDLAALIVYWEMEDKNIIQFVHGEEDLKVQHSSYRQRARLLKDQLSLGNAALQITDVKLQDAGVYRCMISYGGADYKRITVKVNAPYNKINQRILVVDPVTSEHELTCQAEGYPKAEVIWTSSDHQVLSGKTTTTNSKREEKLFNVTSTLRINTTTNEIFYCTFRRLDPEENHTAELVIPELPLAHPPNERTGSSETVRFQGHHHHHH
How it was run: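 Ig- and His-fused extracellular PD-1/PD-L1 binding in BSA/Tween-20 dPBS. HTRF with Eu anti-Ig (1 nM final) and APC anti-His (20 nM final).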

[3] = cluster symbol, cell line of CBA not given (LK35.2-hPD-L1 or 293T-hPD-L1), read-out: CBA IC50 cluster
[4] = cluster symbol, read-out: HTRF IC50 cluster
[5] = cell binding assay, cell line not given, cluster symbol, read-out: CBA IC50 cluster

Row | IC50 [2, 4] [nM] | IC50 [1, 5] [nM] | SMILES | also measured
1 | > 30.5 | > 74.3 | CCCC[C@H]1C(=O)N(C)CC(=O)N[C@@H](CC(=O)O)C(=O)N[C@@H](C(C)C)C(=O)N(C)[C@@H](Cc2ccccc2)C(=O)N[C@@H](Cc2ccc(O)cc2)C(=O)N(C)CC(=O)N[C@H](Cc2c[nH]c3ccccc23)C(=O)N[C@@H](Cc2ccc(O)cc2)C(=O)N[C@@H](CC(C)C)C(=O)N[C@H](C(=O)NCC(N)=O)CSCC(=O)N[C@@H](Cc2ccccc2)C(=O)N(C)[C@@H](Cc2ccccc2)C(=O)N1C [Example 3563] (HELM PEPTIDE1{[O=C(C[*:3])[*:2]].F.[meF].[CCCC[C@@H](C(=O)[*:2])N(C)[*:1]].[Sar].D.V.[meF].Y.[Sar].[dW].Y.L.C.G.[am]}$PEPTIDE1,PEPTIDE1,1:R3-14:R3$$$V2.0) | 
2 | 0.385 to 6.74 | 4.78 to 72.9 | CCCC[C@H]1C(=O)N(C)[C@@H](CCCC)C(=O)N[C@@H](CC(C)C)C(=O)N[C@H](C(=O)NCC(N)=O)CSCC(=O)N[C@@H](Cc2ccc(O)cc2)C(=O)N(C)[C@@H](C)C(=O)N[C@@H](CC(N)=O)C(=O)N2CCC[C@H]2C(=O)N[C@@H](CN)C(=O)N[C@@H](CC(C)C)C(=O)N2C[C@@H](O)CC[C@H]2C(=O)N[C@@H](Cc2c[nH]c3ccccc23)C(=O)N[C@@H](CCN)C(=O)N[C@@H](Cc2c[nH]c3ccccc23)C(=O)N1C [Example 6042] ({CH2CO}-Y[NMeA]NP[Dap]L[X16]W[Dab]W[NMeNle][NMeNle]LCG-NH2; thioether N-14) | 
3 | 6.76 to 30.3 | 0.158 to 4.71 | CCCC[C@H]1C(=O)N(C)[C@@H](CCCC)C(=O)N[C@@H](C)C(=O)N[C@H](C(=O)NCC(N)=O)CSCC(=O)N[C@@H](Cc2ccc(O)cc2)C(=O)N(C)[C@@H](C)C(=O)N[C@@H](CC(N)=O)C(=O)N2CCC[C@H]2C(=O)N[C@@H](CN)C(=O)N[C@@H](CCC(=O)O)C(=O)N2C[C@H](O)C[C@H]2C(=O)N[C@@H](Cc2c[nH]c3ccccc23)C(=O)N[C@@H](CCN)C(=O)N[C@@H](Cc2c[nH]c3ccccc23)C(=O)N1C [Example 5040] ({CH2CO}-Y[NMeA]NP[Dap]E[Hyp]W[Dab]W[NMeNle][NMeNle]ACG-NH2; thioether N-14) | 
4 | 0.385 to 6.74 |  | CCCC[C@H]1C(=O)N(C)[C@@H](CCCC)C(=O)N[C@@H](CN)C(=O)N[C@H](C(=O)NCC(N)=O)CSCC(=O)N[C@@H](Cc2ccc(O)cc2)C(=O)N(C)[C@@H](C)C(=O)N[C@@H](CC(=O)O)C(=O)N2CCC[C@H]2C(=O)N[C@@H](CN)C(=O)N[C@@H](CCC(N)=O)C(=O)N2C[C@H](O)C[C@H]2C(=O)N[C@@H](Cc2c[nH]c3ccccc23)C(=O)N[C@@H](CCN)C(=O)N[C@@H](Cc2csc3ccccc23)C(=O)N1C [Example 1223] ({CH2CO}-Y[NMeA]DP[Dap]Q[Hyp]W[Dab][Bta][NMeNle][NMeNle][Dap]CG-NH2; thioether N-14) | IC50 [1, 3]: 0.158 to 4.71 nM
5 | 6.76 to 30.3 | 4.78 to 72.9 | CCCC[C@H]1C(=O)N2CCC[C@@H]2C(=O)N[C@@H](CCCNC(=N)N)C(=O)N[C@H](C(=O)NCC(N)=O)CSCC(=O)N[C@@H](Cc2ccc(O)cc2)C(=O)N(C)[C@@H](C)C(=O)N[C@@H](CC(N)=O)C(=O)N2CCC[C@H]2C(=O)N[C@@H](Cc2cnc[nH]2)C(=O)N[C@@H](CC(C)C)C(=O)N2CCC[C@H]2C(=O)N[C@@H](Cc2c[nH]c3ccccc23)C(=O)N[C@@H](CO)C(=O)N[C@@H](Cc2csc3ccccc23)C(=O)N1C [Example 5004] ({CH2CO}-Y[NMeA]NPHLPWS[Bta][NMeNle][dP]RCG-NH2; thioether N-14) | 

Further lines, the compound ahead of its results:

Row | SMILES | IC50 [2, 4] [nM] | IC50 [1, 5] [nM] | also measured
6 | CCCC[C@H]1C(=O)N(C)[C@@H](CCCC)C(=O)N[C@@H](CCCNC(=N)N)C(=O)N[C@H](C(=O)NCC(N)=O)CSCC(=O)N[C@@H](Cc2ccccc2Cl)C(=O)N(C)[C@@H](C)C(=O)N[C@@H](CC(N)=O)C(=O)N2CCC[C@H]2C(=O)N[C@@H](Cc2cnc[nH]2)C(=O)N[C@@H](CC(C)C)C(=O)N(C)CC(=O)N[C@@H](Cc2c[nH]c3ccccc23)C(=O)N[C@@H](CO)C(=O)N[C@@H](Cc2c[nH]c3ccccc23)C(=O)N1C [Example 1101] ({CH2CO}-[Phe(2-Cl)][NMeA]NPHL[Sar]WSW[NMeNle][NMeNle]RCG-NH2; thioether N-14) | > 30.5 |  | IC50 [1, 3]: > 74.3 nM
7 | CCCC[C@H]1C(=O)N(C)[C@@H](CCCC)C(=O)N[C@@H](CCCNC(=N)N)C(=O)N[C@H](C(=O)NCC(N)=O)CSCC(=O)N[C@@H](Cc2ccc(CN)cc2)C(=O)N(C)[C@@H](C)C(=O)N[C@@H](CC(N)=O)C(=O)N2CCC[C@H]2C(=O)N[C@@H](Cc2cnc[nH]2)C(=O)N[C@@H](CC(C)C)C(=O)N2C[C@H](O)C[C@H]2C(=O)N[C@@H](Cc2c[nH]c3ccccc23)C(=O)N[C@@H](CO)C(=O)N[C@@H](Cc2c[nH]c3ccccc23)C(=O)N1C [Example 7053] ({CH2CO}-[Phe(4-CH2NH2)][NMeA]NPHL[Hyp]WSW[NMeNle][NMeNle]RCG-NH2; thioether N-14) | 6.76 to 30.3 | 4.78 to 72.9 | 
8 | CCCC[C@H]1C(=O)N(C)[C@@H](CCCC)C(=O)N[C@@H](CCCNC(=N)N)C(=O)N[C@H](C(=O)NCC(N)=O)CSCC(=O)N[C@@H](Cc2ccccc2)C(=O)N(C)[C@@H](C)C(=O)N[C@@H](CC(N)=O)C(=O)N2CCC[C@H]2C(=O)N[C@@H](Cc2cnc[nH]2)C(=O)N[C@@H](CC(C)C)C(=O)N(C)CC(=O)N[C@@H](Cc2c[nH]cn2)C(=O)N[C@@H](CO)C(=O)N[C@@H](Cc2c[nH]c3ccccc23)C(=O)N1C [Example 1073] ({CH2CO}-F[NMeA]NPHL[Sar]HSW[NMeNle][NMeNle]RCG-NH2; thioether N-14) | > 30.5 |  | IC50 [1, 3]: > 74.3 nM
9 | CCCC[C@H]1C(=O)N(C)[C@@H](CCCC)C(=O)N[C@@H](CC(C)C)C(=O)N[C@H](C(=O)NCC(N)=O)CSCC(=O)N[C@@H](Cc2ccccc2)C(=O)N(C)[C@@H](C)C(=O)N[C@@H](CC(N)=O)C(=O)N2CCC[C@H]2C(=O)N[C@@H](Cc2cnc[nH]2)C(=O)N[C@@H](CC(C)C)C(=O)N(C)CC(=O)N[C@@H](Cc2c[nH]c3ccccc23)C(=O)N[C@@H](CO)C(=O)N[C@@H](Cc2c[nH]c3ccccc23)C(=O)N1C [Example 5017] ({CH2CO}-F[NMeA]NPHL[Sar]WSW[NMeNle][NMeNle]LCG-NH2; thioether N-14) |  |  | IC50 ([1]; cell binding assay, cell line not given, value given instead of cluster, read-out: CBA IC50 value): 12.9 nM; IC50 ([2]; value given instead of cluster, read-out: HTRF IC50 value): 11.3 nM
10 | CCCC[C@H]1C(=O)N(C)[C@@H](CCCC)C(=O)N[C@@H](CCCNC(=N)N)C(=O)N[C@H](C(=O)NCC(N)=O)CSCC(=O)N[C@@H](Cc2ccccc2)C(=O)N(C)[C@@H](C)C(=O)N[C@@H](CC(N)=O)C(=O)N2CCC[C@H]2C(=O)N[C@@H](Cc2cnc[nH]2)C(=O)NCC(=O)N(C)CC(=O)N[C@@H](Cc2c[nH]c3ccccc23)C(=O)N[C@@H](CO)C(=O)N[C@@H](Cc2c[nH]c3ccccc23)C(=O)N1C [Example 1053] ({CH2CO}-F[NMeA]NPHG[Sar]WSW[NMeNle][NMeNle]RCG-NH2; thioether N-14) | > 30.5 |  | IC50 [1, 3]: > 74.3 nM
11 | CCCC[C@H]1C(=O)N(C)[C@@H](CCCC)C(=O)N[C@@H](CCCNC(=N)N)C(=O)N[C@H](C(=O)NCC(N)=O)CSCC(=O)N[C@@H](Cc2ccc(N=C(N)N)cc2)C(=O)N(C)[C@@H](C)C(=O)N[C@@H](CC(N)=O)C(=O)N2CCC[C@H]2C(=O)N[C@@H](CN)C(=O)N[C@@H](CC(C)C)C(=O)N2C[C@H](O)C[C@H]2C(=O)N[C@@H](Cc2c[nH]c3ccccc23)C(=O)N[C@@H](CO)C(=O)N[C@@H](Cc2c[nH]c3ccccc23)C(=O)N1C [Example 7064] ({CH2CO}-[Phe(4-guanidino)][NMeA]NP[Dap]L[Hyp]WSW[NMeNle][NMeNle]RCG-NH2; thioether N-14) | > 30.5 | > 74.3 | 
12 | CCCC[C@H]1C(=O)N[C@@H](CCCNC(=N)N)C(=O)N[C@H](C(=O)NCC(N)=O)CSCC(=O)N[C@@H](Cc2ccccc2)C(=O)N(C)[C@@H](C)C(=O)N[C@@H](CC(N)=O)C(=O)N2CCC[C@H]2C(=O)N[C@@H](Cc2cnc[nH]2)C(=O)N[C@@H](CC(C)C)C(=O)N(C)CC(=O)N[C@@H](Cc2c[nH]c3ccccc23)C(=O)N[C@@H](CO)C(=O)N[C@@H](Cc2c[nH]c3ccccc23)C(=O)N(C)[C@@H](COCc2ccccc2)C(=O)N1C [Example 6013] ({CH2CO}-F[NMeA]NPHL[Sar]WSW[NMeS](Bn)[NMeNle]RCG-NH2; thioether N-14) | 6.76 to 30.3 | 4.78 to 72.9 | 
13 | CCCC[C@H]1C(=O)N(C)CC(=O)N[C@@H](CC(=O)O)C(=O)N[C@@H](C(C)C)C(=O)N(C)[C@@H](Cc2ccccc2)C(=O)N[C@@H](CCC(=O)O)C(=O)N(C)CC(=O)N[C@@H](Cc2c[nH]c3ccccc23)C(=O)N[C@@H](Cc2ccc(O)cc2)C(=O)N[C@@H](CCCNC(=N)N)C(=O)N[C@H](C(=O)NCC(N)=O)CSCC(=O)N[C@@H](Cc2ccccc2)C(=O)N(C)[C@@H](Cc2ccccc2)C(=O)N1C [Example 3559] (HELM PEPTIDE1{[O=C(C[*:3])[*:2]].F.[meF].[CCCC[C@@H](C(=O)[*:2])N(C)[*:1]].[Sar].D.V.[meF].E.[Sar].W.Y.R.C.G.[am]}$PEPTIDE1,PEPTIDE1,1:R3-14:R3$$$V2.0) |  |  | IC50 ([1]; CBA IC50 value, cell binding assay, cell line not given, value given instead of cluster): 48 nM; IC50 ([2]; HTRF IC50 value, value given instead of cluster): 12.1 nM
14 | CCCC[C@H]1C(=O)N(C)CC(=O)N[C@@H](CC(=O)O)C(=O)N[C@@H](C(C)C)C(=O)N(C)[C@@H](Cc2ccccc2)C(=O)N[C@@H](CCC(=O)O)C(=O)N(C)CC(=O)N[C@@H](Cc2c[nH]c3ccccc23)C(=O)N[C@@H](Cc2ccc(O)cc2)C(=O)N[C@@H](CC(C)C)C(=O)N[C@H](C(=O)NCC(N)=O)CSCC(=O)N[C@@H](Cc2ccccc2)C(=O)N(C)[C@@H](Cc2ccccc2)C(=O)N1C [Example 3507] (HELM PEPTIDE1{[O=C(C[*:3])[*:2]].F.[meF].[CCCC[C@@H](C(=O)[*:2])N(C)[*:1]].[Sar].D.V.[meF].E.[Sar].W.Y.L.C.G.[am]}$PEPTIDE1,PEPTIDE1,1:R3-14:R3$$$V2.0) | 6.76 to 30.3 | > 74.3 | 
